From US10081628B2, “Apoptosis-inducing agents for the treatment of cancer and immune and autoimmune diseases” (AbbVie Inc., priority 2013, dated 2018)
Where two headings read alike, the source gives them in different places.

Experiments:
RS4;11 cells [1] = conditions: Blood, 2008, Vol. 111, 2300-2309; cited from earlier work
lymphocytes = assay: Lymphocyte reduction in C57BL/6 mice; format: in vivo; conditions: Mus musculus, ip
How it was run: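 C57Bl/6 mice dosed intraperitoneally at 30 mg/kg daily for four days. Blood cell counts by hematology analyzer 24 hours after first and last doses; exposure (AUC) from samples at 1, 6, 10 and 24 hours after last dose.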

RS4;11 cells [2] = assay: RS4;11 cell viability assay (CellTiter Glo); format: cell-based; conditions: 10% human serum, 48 hours
How it was run: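 Cells seeded at 50,000 per well and exposed to compounds for 48 h at 37 C, 5% CO2 in the presence of 10% human serum. Viability read by CellTiter Glo; EC50 derived from percentage of viable cells versus untreated controls.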

GST-Bcl-2 = GST-Bcl-2 (Homo sapiens, UniProt P10415); assay: TR-FRET Bcl-2 binding assay (F-Bak peptide probe); conditions: GST-Bcl-2 1 nM, F-Bak peptide probe 100 nM, Tb-anti-GST 1 nM; Wang's equation; '<' = below limit of detection
How it was run: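 Competitive TR-FRET displacement of F-Bak peptide probe from GST-Bcl-2 detected with Tb-anti-GST antibody; compounds serially diluted in DMSO from 50 μM (2× starting concentration). Mixtures incubated 3 h at room temperature, read at 340 nm excitation with 520 and 495 nm emission. Ki derived by Wang's equation.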

[3] = 30 mg/kg intraperitoneal every day for four days, 24 hours after the last dose, read-out: Lymphocyte reduction % inh. day 4
[4] = 30 mg/kg intraperitoneal every day, 24 hours after the first dose, read-out: Lymphocyte reduction % inh. day 1

GST-Bcl-2, sequence (P10415 whole entry): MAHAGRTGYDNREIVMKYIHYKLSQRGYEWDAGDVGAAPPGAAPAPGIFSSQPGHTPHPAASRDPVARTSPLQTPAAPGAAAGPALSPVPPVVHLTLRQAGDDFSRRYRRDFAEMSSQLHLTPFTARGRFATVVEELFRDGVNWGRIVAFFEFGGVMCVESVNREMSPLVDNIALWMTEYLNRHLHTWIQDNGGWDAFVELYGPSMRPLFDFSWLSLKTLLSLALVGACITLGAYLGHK

Row | SMILES | sensitivity of RS4;11 cells to the Bcl-2 family member inhibitor (RS4;11 cells [1]) | inhibition at 30 mg/kg (lymphocytes; [3]) [%] | inhibition at 30 mg/kg (lymphocytes; [4]) [%] | EC50 (RS4;11 cells [2]) [nM] | Ki (GST-Bcl-2) [nM]
1 | CN(C)CC[C@H](CSc1ccccc1)Nc1ccc(S(=O)(=O)NC(=O)c2ccc(N3CCN(Cc4ccccc4-c4ccc(Cl)cc4)CC3)cc2)cc1[N+](=O)[O-] [ABT-737, N-(4-(4-((4′-chloro(1,1′-biphenyl)-2-yl)methyl)piperazin-1-yl)benzoyl)-4-(((1R)-3-(dimethylamino)-1-((phenylsulfanyl)methyl)propyl)amino)-3-nitrobenzenesulfonamide] | sensitive | – | – | – | –
2 | C[C@@H](Nc1ccc(S(=O)(=O)NC(=O)c2ccc(N3CCN(CC4=C(c5ccc(Cl)cc5)CC(C)(C)CC4)CC3)cc2Oc2cnc3[nH]ccc3c2)cc1[N+](=O)[O-])C1CCOCC1 [Example 3, 4-(4-{[2-(4-chlorophenyl)-4,4-dimethylcyclohex-1-en-1-yl]methyl}piperazin-1-yl)-N-[(3-nitro-4-{[(1R)-1-(tetrahydro-2H-pyran-4-yl)ethyl]amino}phenyl)sulfonyl]-2-(1H-pyrrolo[2,3-b]pyridin-5-yloxy)benzamide] | – | < 15 | < 15 | 150 | < 0.1
3 | CC1(C)CCC(CN2CCN(c3ccc(C(=O)NS(=O)(=O)c4ccc(NCC5(CO)CCOCC5)c([N+](=O)[O-])c4)c(Oc4cnc5[nH]ccc5c4)c3)CC2)=C(c2ccc(Cl)cc2)C1 [Example 10, 4-(4-{[2-(4-chlorophenyl)-4,4-dimethylcyclohex-1-en-1-yl]methyl}piperazin-1-yl)-N-{[4-({[4-(hydroxymethyl)tetrahydro-2H-pyran-4-yl]methyl}amino)-3-nitrophenyl]sulfonyl}-2-(1H-pyrrolo[2,3-b]pyridin-5-yloxy)benzamide] | – | < 15 | < 15 | 8.1 | < 0.1
4 | CC1(C)CCC(CN2CCN(c3ccc(C(=O)NS(=O)(=O)c4ccc(NC[C@@H]5[C@H]6COC[C@@H]56)c([N+](=O)[O-])c4)c(Oc4cnc5[nH]ccc5c4)c3)CC2)=C(c2ccc(Cl)cc2)C1 [Example 14, 4-(4-{[2-(4-chlorophenyl)-4,4-dimethylcyclohex-1-en-1-yl]methyl}piperazin-1-yl)-N-[(3-nitro-4-{[(1R,5S,6S)-3-oxabicyclo[3.1.0]hex-6-ylmethyl]amino}phenyl)sulfonyl]-2-(1H-pyrrolo[2,3-b]pyridin-5-yloxy)benzamide] | – | 54 | 61 | 10 | < 0.1
5 | CC1(C)CCC(CN2CCN(c3ccc(C(=O)NS(=O)(=O)c4ccc(NCC5(C)CCOCC5)c([N+](=O)[O-])c4)c(Oc4cnc5[nH]ccc5c4)c3)CC2)=C(c2ccc(Cl)cc2)C1 [Example 21, 4-(4-{[2-(4-chlorophenyl)-4,4-dimethylcyclohex-1-en-1-yl]methyl}piperazin-1-yl)-N-[(4-{[(4-methyltetrahydro-2H-pyran-4-yl)methyl]amino}-3-nitrophenyl)sulfonyl]-2-(1H-pyrrolo[2,3-b]pyridin-5-yloxy)benzamide] | – | 61 | 61 | 19 | < 0.1
6 | CC1(C)CCC(CN2CCN(c3ccc(C(=O)NS(=O)(=O)c4ccc(NC[C@@H]5COCCO5)c([N+](=O)[O-])c4)c(Oc4cnc5[nH]ccc5c4)c3)CC2)=C(c2ccc(Cl)cc2)C1 [Example 1, 4-(4-{[2-(4-chlorophenyl)-4,4-dimethylcyclohex-1-en-1-yl]methyl}piperazin-1-yl)-N-[(4-{[(2R)-1,4-dioxan-2-ylmethyl]amino}-3-nitrophenyl)sulfonyl]-2-(1H-pyrrolo[2,3-b]pyridin-5-yloxy)benzamide] | – | 41 | 41 | 5.3 | < 0.1
